Values joined by “and” are separate entries in the source; they are usually repeats but may differ in a detail not shown here. Equal entries are not always repeated.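 Protocol summary: plate cells (96-well), add compound at 5 concentrations, incubate 48 h, interpolate endpoints linearly. At the GI50, growth is halved. TGI marks complete inhibition of growth.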
What was measured:
Experiment in all cases: NCI tumour cell line growth inhibition, 48 h
SF-295 CNS = test system: SF-295 CNS
LOX IMVI melanoma = test system: LOX IMVI melanoma
NCI-H226 lung = test system: NCI-H226 lung
MDA-MB-231 breast = test system: MDA-MB-231 breast
HS 578T breast = test system: HS 578T breast
RPMI-8226 leukemia = test system: RPMI-8226 leukemia
T-47D breast = test system: T-47D breast
K-562 leukemia = test system: K-562 leukemia
OVCAR-3 ovarian = test system: OVCAR-3 ovarian
HCT-15 colon = test system: HCT-15 colon

Structure (SMILES) | TGI (SF-295 CNS) | TGI (LOX IMVI melanoma) [µM] | TGI (NCI-H226 lung) [µM] | TGI (MDA-MB-231 breast) | TGI (HS 578T breast) [µM] | TGI (RPMI-8226 leukemia) [µM] | TGI (T-47D breast) [µM] | TGI (K-562 leukemia) [µM] | TGI (OVCAR-3 ovarian) [µM] | TGI (HCT-15 colon) | GI50 (SF-295 CNS) [µM] | GI50 (NCI-H226 lung) [µM] | GI50 (MDA-MB-231 breast) [µM] | GI50 (RPMI-8226 leukemia) [µM] | GI50 (K-562 leukemia) [µM] | GI50 (OVCAR-3 ovarian) [µM] | GI50 (HCT-15 colon)
COC(=O)NN(C(=O)OC)c1c(-c2ccccc2)nc(SC)n1N | > 100 µM | > 100 | > 100 | > 100 µM | > 100 | > 100 | > 100 | > 100 | > 100 | > 100 µM | – | – | – | – | – | – | –
CCOC1CC(=O)c2c(Br)sc(Br)c21 (stereo not given) | 77.4 µM | 42.2 | – | 35.9 µM | 90.6 | 49.6 | 44.1 | 41.5 | 28.5 | 41.9 µM | – | – | – | – | – | – | –
O=[N+]([O-])C(=C(N1CCCCC1)N1CCCCC1)/C(Cl)=C(\Cl)Br | > 100 µM | 44.9 | 44.6 | 70.6 µM | 45.4 | 44.2 | 65.1 | 46.2 | 81.4 | 54.1 µM | – | – | – | – | – | – | –
O=C(NC(Cc1c[nH]c2ccccc12)C(=O)O)/C(=C/c1ccccc1O)NC(=O)c1ccccc1 (stereo not given) | 37 µM | > 100 | 61.5 | 65 µM | 73.3 | > 100 | > 100 | > 100 | – | > 100 µM | – | – | – | – | – | – | –
Cc1cn2c(/C=C3/C(=O)Nc4cccc(Cl)c43)c(Cl)nc2s1 | > 100 µM | > 100 | – | > 100 µM | 42.5 | > 100 | > 100 | > 100 | > 100 | > 100 µM | – | – | – | – | – | – | –
COc1ccc(CC(CO)NC(=O)OCc2ccccc2)cc1Oc1ccc(CC(CO)NC(=O)OCc2ccccc2)cc1 (stereo not given) | 24.6 µM | – | – | 36 µM | – | 30.9 | – | – | 27.4 | > 100 µM | – | – | – | – | – | – | –
O=C1CCC(=Nc2ccc(Cl)cc2)N1C(=O)COc1ccc(OCC(=O)N2C(=O)CSC2=Nc2ccc(Cl)cc2)cc1 | > 100 µM | > 100 | > 100 | > 100 µM | > 100 | > 100 | > 100 | > 100 | > 100 | > 100 µM | – | – | – | – | – | – | –
Nn1c(CCCCCCCCc2nnc(COc3c(O)ccc4ccccc34)n2N)nnc1COc1c(O)ccc2ccccc12 | > 100 µM | – | > 100 | > 100 µM | – | > 100 | – | > 100 | – | > 100 µM | – | – | – | – | – | – | –
CCCCOC(C)(C)/C=C/C(O)[C@](C)(O)[C@H]1[C@H](O)C[C@@]2(C)[C@@H]3CCc4c(cc(OC5OC(CO)C(O)C(O)C5O)c(O)c4C)C3(C)C(=O)C[C@]12C (stereo not given in full) | > 100 µM | > 100 | > 100 | > 100 µM | – | – | > 100 | > 100 | > 100 | > 100 µM | – | – | – | – | – | – | –
Cc1cc(C)c2c(=O)n(CN3CC4Nc5ccccc5C4C3)sc2n1 (stereo not given) | > 100 µM | 48.5 | 81.1 | 37.5 µM | > 100 | > 100 | > 100 | 92.7 | 98.5 | 44.3 µM | – | – | – | – | – | – | –
C=C1C(O)C2(O)OCC34C(CC5C(C)=CC(=O)C(O)C5(C)C23)OC(=O)C(OC(=O)C/C=C(\C)CCCCC)C14 (stereo not given) | 0.00567 µM and 0.0245 µM and 0.0174 µM | – | – | 0.0218 µM and 0.162 µM | < 0.001 | – | < 0.001 | – | < 0.001 | 0.0503 µM and 0.352 µM and 0.151 µM | 0.0013 | < 0.001 | 0.0302 | < 0.001 | < 0.001 | < 0.001 | 0.00953 µM and 0.0434 µM
OC[C@@H](O)[C@H]1NC[C@@H](O)[C@H]1O | > 100 µM | – | – | – | > 100 | > 100 | – | – | > 100 | > 100 µM | – | – | – | – | – | – | –
CC(=O)N/N=C1/NN(C(C)=O)C2(S1)C(=O)Nc1ccc(Br)cc12 (stereo not given) | > 100 µM | > 100 | > 100 | > 100 µM | > 100 | > 100 | > 100 | > 100 | > 100 | > 100 µM | – | – | – | – | – | – | –
Cc1ccc(S(=O)(=O)Oc2cc(N)c3c(n2)CCC3)cc1 | > 100 µM | > 100 | > 100 | > 100 µM | > 100 | > 100 | > 100 | > 100 | > 100 | > 100 µM | – | – | – | – | – | – | –
COP(=O)(O)/C=C/C(NC(=O)C(Cl)(Cl)Cl)c1ccccc1 (stereo not given) | > 100 µM | > 100 | > 100 | > 100 µM | > 100 | > 100 | > 100 | > 100 | > 100 | > 100 µM | – | – | – | – | – | – | –
CCC1=CCC23C(=O)C=CC(=O)C2(C1)C(=O)c1cccc(OC)c1C3=O (stereo not given) | > 100 µM | 29.9 | 67.2 | 29.8 µM | 57.3 | 33.4 | 22.6 | 72.4 | 27.2 | 37 µM | – | – | – | – | – | – | –
N#Cc1nc(-c2cc([N+](=O)[O-])cc([N+](=O)[O-])c2)oc1N | > 10 µM | > 10 | > 10 | > 10 µM | > 10 | > 10 | > 10 | > 10 | – | > 10 µM | – | – | – | – | – | – | –
Cc1cc2c(C)cc(=O)[nH]c2cc1N | > 100 µM | > 100 | > 100 | > 100 µM | – | > 100 | > 100 | > 100 | > 100 | > 100 µM | – | – | – | – | – | – | –
O=C1c2ccccc2CN1c1ccc(O)cc1 | > 100 µM | > 100 | > 100 | > 100 µM | > 100 | > 100 | > 100 | > 100 | > 100 | > 100 µM | – | – | – | – | – | – | –
C=C(Cl)/C(=C\Cl)CCC(Br)C(C)C (stereo not given) | > 100 µM | 31.4 | > 100 | 45.4 µM | > 100 | > 100 | – | > 100 | > 100 | – | – | – | – | – | – | – | –
CN(C)c1nc(=NCc2ccncc2)ss1 | > 100 µM | 31.1 | > 100 | > 54 µM | 70.3 | 53.1 | > 51.8 | 47.7 | > 82.3 | > 100 µM | – | – | – | – | – | – | –
NC(CSCc1ccccc1)C(=O)O (stereo not given) | > 100 µM | > 100 | > 100 | > 100 µM | > 100 | > 100 | > 100 | > 100 | > 100 | > 100 µM | – | – | – | – | – | – | –

Source: PubChem BioAssay (NCI)
